Values joined by “and” are separate entries in the source; they are usually repeats but may differ in a detail not shown here. Equal values may be shown once.
Key:
[1] = system: human embryonic stem cell line H9; test: Cells from […] differentiated on MEFs: role of Wnt-3a (real-time PCR, FACS); format: cell-based
Method: Cells from the human embryonic stem cell line H9 cultured on […]™ for at least five passages were seeded onto MEF feeders in ES media.
At day 3 and 5, the cultures were analyzed by real time PCR for SOX-17, SOX-7, Alpha-fetal protein (AFP), CXCR4, Brychyury (Bry), gooscecoid (GSC), HNF-3 beta, GATA4, hTERT and Oct4. AFP and SOX-7 are regarded as visceral endoderm markers while GATA4, HNF-3beta and SOX-17 represent definite endoderm markers and GSC, Bry, and CXCR4 represent markers of primitive streak. hTERT and Oct-4 are markers for self renewal and pluripotency respectively. FACS analysis was also performed at day 3 and 5.

[2] = system: human embryonic stem cell line H9; test: Cytokine array (RayBiotech) of cell lysates and conditioned media, Activin A +/- Wnt3a (Table VII); format: cell-based; parameters: Angiogenin / BDNF / BMP-4 / BMP-6 / CK beta 8-1 / Eotaxin-3 / Flt-3 Ligand / Fractalkine / GCP-2 / GDNF / GM-CSF / I-309 / IFN-gamma / IGFBP-1 / IGFBP-2 / IGFBP-4 / IL-10 / IL-13 / IL-15 / IL-1alpha / IL-1beta / IL-1ra / IL-3 / IL-5 / Leptin / MCP-1 / MIP-1-delta / NT-3 / RANTES / SCF / TGF-beta 1 / TNF-beta / Acrp30 / AgRP / AxI / bFGF: unit not given here; details: H9 day 5, samples 1,2
Method: At passage 54, cells were differentiated in the presence of 100 ng/mlActivinA+/−10 ng/mlWnt3a for 2 days in 0.5% FBS DMEM/F12. […]
Cell lysates were prepared from cells of each treatment group, with a mammalian cell lysis kit (Sigma-Aldrich,MO). Conditioned media from each treatment group was collected and concentrated. Cytokine array analysis was completed using Cytokine Array panels provided by RayBiotech, GA (http://www.raybiotech.com/). […] For each panel, positive and negative controls are also included.

[3] = system: H9P49 and H1P46 embryonic stem cells; test: Definitive endoderm on MATRIGEL: effective dose of activin A with GSK-3B inhibitor or Wnt-3a; format: cell-based, human
From the text: FIG. 31 panels a-d is for H9P49 cells and panels e-f is for H1P46 cells.

Activin A: activin A (a member of the TGFβ superfamily), R&D Systems; 'w/o wnt' in Table VII = 100 ng/ml Activin A without Wnt3a
CXCR4 positive cells (FACS) ([1]; day 3, high concentration of Activin A): 32-42%
cells expressing CXCR4 (FACS) ([1]; day 5, high concentration of activin A): 28-32%
AFP expression ([1]; lower concentration of Activin A, regardless of Wnt3a): very high
Acrp30 ([2]; Cell conditioned media): 1,797.52 and 1,319.88
AgRP ([2]; Cell conditioned media): 378.17 and 195.90
Amphiregulin ([2]; Cell conditioned media): 250.52 and 151.01
Angiogenin ([2]; Cell conditioned media): 13,726.35 and 11,749.55
Angiopoietin-2 ([2]; Cell conditioned media): 655.82 and 632.60
AxI ([2]; Cell conditioned media): 401.31 and 324.05
BDNF ([2]; Cell conditioned media): 689.22 and 563.39
BMP-4 ([2]; Cell conditioned media): 583.40 and 541.83
BMP-6 ([2]; Cell conditioned media): 354.91 and 355.28
CK beta 8-1 ([2]; Cell conditioned media): 17.79 and 25.31
CNTF ([2]; Cell conditioned media): 282.81 and 211.86
EGF ([2]; Cell conditioned media): 1,681.85 and 1,406.12
Eotaxin ([2]; Cell conditioned media): 207.89 and 199.67
Eotaxin-2 ([2]; Cell conditioned media): 890.56 and 744.31
Eotaxin-3 ([2]; Cell conditioned media): 975.77 and 665.56
FGF-7 ([2]; Cell conditioned media): 449.49 and 352.47
Flt-3 Ligand ([2]; Cell conditioned media): 315.58 and 277.47
Fractalkine ([2]; Cell conditioned media): 120.80 and 145.30
GCP-2 ([2]; Cell conditioned media): 203.21 and 166.86
GDNF ([2]; Cell conditioned media): 176.99 and 194.98
GM-CSF ([2]; Cell conditioned media): 777.25 and 722.75
IFN-gamma ([2]; Cell conditioned media): 283.74 and 559.64
IGF-I ([2]; Cell conditioned media): 88.96 and 148.11
IGFBP-1 ([2]; Cell conditioned media): 33.71 and 24.37
IGFBP-2 ([2]; Cell conditioned media): 27,656.85 and 28,473.95
IGFBP-4 ([2]; Cell conditioned media): 10,091.09 and 6,029.45
IL-1alpha ([2]; Cell conditioned media): 10,155.70 and 5,842.90
IL-1beta ([2]; Cell conditioned media): 117.99 and 75.93
IL-1ra ([2]; Cell conditioned media): 142.34 and 93.74
IL-2 ([2]; Cell conditioned media): 188.22 and 363.72
IL-3 ([2]; Cell conditioned media): 4,598.86 and 5,260.77
IL-4 ([2]; Cell conditioned media): 357.72 and 239.04
IL-6 ([2]; Cell conditioned media): 7,377.28 and 9,527.88
IL-7 ([2]; Cell conditioned media): 456.98 and 430.27
IL-10 ([2]; Cell conditioned media): 722.93 and 564.32
IL-16 ([2]; Cell conditioned media): 259.39 and 214.67
LIGHT ([2]; Cell conditioned media): 619.92 and 453.71
Leptin ([2]; Cell conditioned media): 2,999.42 and 2,016.38
M-CSF ([2]; Cell conditioned media): 529.09 and 269.04
MCP-1 ([2]; Cell conditioned media): 572.17 and 500.58
MCP-4 ([2]; Cell conditioned media): 123.61 and 61.87
MIG ([2]; Cell conditioned media): 272.50 and 486.52
NAP-2 ([2]; Cell conditioned media): 97.39 and 110.61
NT-3 ([2]; Cell conditioned media): 97.39 and 171.55
PDGF-BB ([2]; Cell conditioned media): 4,729.96 and 8,521.09
RANTES ([2]; Cell conditioned media): 393.31 and 347.78
SCF ([2]; Cell conditioned media): 691.09 and 487.46
TGF-beta 1 ([2]; Cell conditioned media): 752.90 and 740.56
TGF-beta 3 ([2]; Cell conditioned media): 111.44 and 115.30
TNF-beta ([2]; Cell conditioned media): 675.17 and 671.19
bFGF ([2]; Cell conditioned media): 7,948.03 and 4,993.83
Amphiregulin ([2]; Cell lysate): 17.50 and 15.44
AxI ([2]; Cell lysate): 637.50 and 795.83
BDNF ([2]; Cell lysate): 167.50 and 167.82
BMP-4 ([2]; Cell lysate): 247.00 and 273.70
CK beta 8-1 ([2]; Cell lysate): 1.00 and 1.13
Eotaxin-2 ([2]; Cell lysate): 262.00 and 336.77
Eotaxin-3 ([2]; Cell lysate): 184.50 and 284.96
FGF-6 ([2]; Cell lysate): 629.00 and 379.57
GM-CSF ([2]; Cell lysate): 433.00 and 636.37
I-309 ([2]; Cell lysate): 152.50 and 246.10
IFN-gamma ([2]; Cell lysate): 349.00 and 441.52
IGFBP-2 ([2]; Cell lysate): 3,785.50 and 5,554.45
IGFBP-4 ([2]; Cell lysate): 5,553.00 and 6,043.27
IL-1alpha ([2]; Cell lysate): 1,236.00 and 1,216.99
IL-1beta ([2]; Cell lysate): 1.00 and 1.13
IL-1ra ([2]; Cell lysate): 33.00 and 25.91
IL-5 ([2]; Cell lysate): 400.50 and 555.84
IL-6 ([2]; Cell lysate): 828.50 and 516.98
IL-7 ([2]; Cell lysate): 190.00 and 313.12
IL-13 ([2]; Cell lysate): 428.50 and 555.84
IL-15 ([2]; Cell lysate): 599.50 and 808.13
Leptin ([2]; Cell lysate): 900.50 and 617.79
MCP-1 ([2]; Cell lysate): 242.50 and 282.71
MIG ([2]; Cell lysate): 291.00 and 226.39
MIP-1-delta ([2]; Cell lysate): 1.50 and 1.13
NT-3 ([2]; Cell lysate): 1.00 and 1.13
SCF ([2]; Cell lysate): 74.50 and 148.67
TGF-beta 1 ([2]; Cell lysate): 362.00 and 230.33
TNF-alpha ([2]; Cell lysate): 431.00 and 579.49
TNF-beta ([2]; Cell lysate): 241.00 and 342.40
bFGF ([2]; Cell lysate): 59,820.50 and 54,057.29
expression of definitive endoderm markers ([3]; 50 ng/ml of AA+20 ng/ml of Wnt-3A or 100 nM GSK-3B inhibitor IX): robust expression
cell fate at lower doses of activin A ([3]; lower doses of activin A): formation of extraembryonic endoderm
